# Key:
# anaesthetized dogs = conditions: cited from earlier work
# anesthetized rats = experiment: Erectile responses: intracavernosal pressure (ICP) increases to cavernosal nerve electrical stimulation; format: in vivo, rat (Sprague-Dawley); conditions: 3 mg/kg i.v.
# Procedure: The effects of nebivolol administration on rat erectile function were studied. Erectile responses in rats were evaluated by measuring intracavernosal pressure (ICP) increases to cavernosal nerve electrical stimulation. To measure ICP, rats (Sprague-Dawley) were anesthetized with ketolar and diazepam. The surgical procedure included dissection and isolation of the right cavernous nerve through an abdominal midline incision and exposure of penile crura through a transverse perineal incision. ICP measurements were permitted by insertion of a 23-gauge needle into the right crus. The right carotid artery and left external jugular vein were catheterized for constant blood pressure measurement and saline infusion, respectively. Electrostimulation was performed with a delicate platinum bipolar hook electrode connected to a stimulator and current amplifier. Parameters of electrical stimulation included pulses with a duration of 0.3 ms and 1.5 mA of current intensity for 1 min. Frequency-response curves were performed by applying stimulation at 1, 3 and 10 Hz with a lapse of 3 min between each increase of frequency.
# [1] = system: spontaneous hypertensive rats; conditions: acute; cited from earlier work
smiles,measurement,setting,value
"OC(CNCC(O)C1CCc2cc(F)ccc2O1)C1CCc2cc(F)ccc2O1 (racemic) [nebivolol, α,α′-iminobis(methylene)bis[6-fluoro-2-chromanmethanol]]",effect on stroke volume,anaesthetized dogs,augments stroke volume
same,effect on total peripheral vascular resistance,anaesthetized dogs,decreases total peripheral vascular resistance
same,effect on erectile responses to CNES,anesthetized rats,significantly potentiated
same,AUC of ICP at 3 Hz,"anesthetized rats; control 1612±294, p<0.05",2544±440 mmHg×s
same,effect on blood pressure,[1],acutely lowers blood pressure
